Consider two molecules from US5116818A, “Method and kit for contraception with GnRH-antagonist” (Medical College of Hampton Roads, priority 1990, dated 1992).

The test system of this assay is cynomolgus monkeys (Macaca fascicularis). The assay can be described thus: Study III: once-weekly Nal-Glu GnRH-antagonist plus 12 days of norgestimate, three treatment cycles. The assay is classed as in vivo. The protocol: STUDY III. In this study, which is reported in more detail in Contraception, June, 1990, Vol. 31, No. 6, pp. 623-631, six regularly cycling adult female cynomolgus monkeys (Macaca fascicularis) were housed in individual cages in a controlled environment and checked daily for menstrual flow. Each primate underwent a study entry control menstrual cycle in which alternate day blood samples were taken (under ketamine anesthesia, 10 mg/kg, im) to verify maturation of the dominant follicle, presumed ovulation, and corpus luteum function. The experimental design is depicted in FIG. 1. On menstrual cycle days 2, 9, 16, and 23 (onset of menses =Day 1) three of the monkeys were injected sc with 0.1 mg/kg GnRH-antagonist ([Ac-D2 Nal^1, 4ClDPhe^2, D3 Pal^3, Arg^5,DGlu^6 (AA), DAla^10 ]- GnRH; Nal-Glu) in saline. This dose was selected based on dose-response findings reported in Fertil Seril 1987; 48:480-485. On cycle days 15 to 26, each female was administered 25 μg norgestimate/day orally. This treatment regimen (once-weekly GnRH-antagonist plus 12 days of progestin) was repeated for 2 additional cycles (84 days total). Two of the treated monkeys were ovariectomized at the end of the third treatment cycle to evaluate ovarian follicular morphology. […] Three control monkeys received saline injections and blank (progestin placebo) capsules according to the same regimen. Serum samples were assayed by RIA for estradiol, progesterone, LH, and FSH.

Where only a bound is given, the exact number is not on record here.

On to “[Ac-D2 Nal^1, 4ClDPhe^2, D3 Pal^3, Arg^5,DGlu^6 (AA), DAla^10 ]- GnRH [Nal-Glu]”, for which the “completion of follicular maturation, ovulation and corpus luteum function” value (0.1 mg/kg sc on cycle days 2, 9, 16, 23, judged by serum LH, E2 and P levels) is recorded as “effectively blocked”. Further, the “LH surges or serum progesterone rises” value (during the intermittent regimen) was “NO LH surges or serum progesterone rises were detected”. Also, the serum progesterone (during the treatment cycles) was less than 0.1 ng/mL.
`C#C[C@]1(OC(C)=O)CC[C@H]2[C@@H]3CCC4=CC(=NO)CC[C@@H]4[C@H]3CC[C@@]21CC` (mixture of isomers) [norgestimate]: the transformation of endometrium entry (sequential norgestimate, histological sections on day 26) is given as “effectively transformed proliferative to secretory endometrium”.
